Biological target: Small ubiquitin-related modifier 2/3 (SUMO 2/3) (Homo sapiens, UniProt P61956+P55854)
Assay: Binding affinity to His-tagged SUMO2/3 (unknown origin) expressed in Escherichia coli BL21 (DE3) measured over 120 secs by SPR analysis

COCC(C)n1c(NCc2ccccn2)nc2ccccc2c1=O (stereo not drawn)
Kd: 59 µM

C=CCNc1nc(NCc2ccccn2)nc2ccccc12
Kd: 29 µM

CC(NS(=O)(=O)c1ccc(Cl)c(Cl)c1)C(=O)NNC(=O)c1ccccc1O (stereo not drawn)
Kd: 1.9 µM

Reference: ChEMBL document CHEMBL3580539, “Discovery of small molecule inhibitors targeting the SUMOSIM interaction using a protein interface consensus approach” (Medchemcomm, 2014)
